Source: PMC8113459, “Selective inhibition of cullin 3 neddylation through covalent targeting DCN1 protects mice from acetaminophen-induced liver toxicity” (Nature Communications, 2021)
Several values for one entry are separate records, joined by “and”; a condition that tells them apart may be missing. Equal entries are not always repeated. Where two headings read alike, the source gives them in different places.

Experiments:
[1] = test system: neddylation of cullin 1, 2, 4A, 4B, and 5; experiment: Western blot, neddylation of other cullin members; format: cell-based, human; conditions: for selectivity in inhibition of the neddylation of cullin 3 over other cullin members: a number of cell lines
Description: (§1) Western blotting was performed as described previously. Treated cells were lysed by RIPA buffer supplemented with protease inhibitor. The expression level of indicated proteins was examined by immunoblotting analysis and GAPDH was used as the loading control. Antibodies were purchased commercially: cullin 1 (sc-17775, 1:500 dilution) and cullin 2 (sc-166506, 1:500 dilution) from Santa Cruz Biotech (Santa Cruz, CA); cullin 4A (PA5-14542, 1:1000 dilution), cullin 4B (PA5-50647, 1:1000 dilution), and DCN3 (DCUN1D3, PA5-44000, 1:1000 dilution) from Thermo Fisher Scientific (Wayne, MI); cullin 3 (2759, 1:1000), NRF2 (12721, 1:1000 dilution), HO-1 (70081, 1:1000 dilution), and Bim (2819, 1:1000 dilution) from Cell Signaling Technology (Boston, MA); DCN1 (GWB-E3D700, 1:1000 dilution) from GenWay Biotech (San Diego, CA); and cullin 5 (A302-173A, 1:500 dilution) from Bethyl Labs (Montgomery, TX). Results are representative of two independent experiments.

[2] = test system: neddylation of cullin 3; experiment: Western blot, cullin 3 neddylation in cells of different tissue types (U2OS, THLE2, MDA-MB-231, KYSE70, HCT116); format: cell-based, human
Description: as §1

[3] = Pharmacokinetics: concentrations in mouse plasma and liver; format: in vivo; conditions: for concentration at 1 h / concentration at 3 h / concentration at 6 h / concentration at 24 h: male, C57BL/6, mouse, ip
Description: Supplementary Table 2A. Concentrations of DI-1548 in mouse Plasma and liver after the C57BL/6 male mice were treated with a single dose of DI-1548 at 25 mg/kg via intraperitoneal (IP) injection. BLQ: below the limit of quantification.
Time point (h) Plasma (ng /mL) Liver (ng /g)
Supplementary Table 2B. Concentrations of DI-1859 in mouse Plasma and liver after the C57BL/6 male mice were treated with a single dose of DI-1859 at 25 mg/kg via intraperitoneal (IP) injection. BLQ:
Time point (h) Pl asma (ng /mL) Liver (ng /g) […]

[4] = test system: NRF2 protein in mouse liver tissue; experiment: Pharmacodynamics: NRF2 protein in mouse liver tissue (western blot); format: in vivo; conditions: single dose 25 mg/kg IP; for upregulation of NRF2 protein in the mouse liver: C57BL/6 male mice
Description: Fig. 7 DI-1859 effectively increases the level of NRF2 protein in the liver tissue and protects liver tissue damage induced by acetaminophen (APAP) in mice. a Western blotting analysis of the effect of DI-1548 or DI-1859 on the level of NRF2 protein in mouse liver tissue. Liver tissues harvested from C57BL/6 male mice treated with DI-1548 or DI-1859 at 25 mg/kg via intraperitoneal (IP) injection was lysed with RIAP buffer. The expression level of NRF2 protein was examined by western blotting. GAPDH was used a loading control. Representative images of two independent experiments are shown. b Analysis of the serum alanine aminotransferase (ALT) level in mice. The time (h) counted from APAP administration in G2 and G5-8, from DI-1859 or vehicle administration in G1, G3, and G4. Data are presented as mean ± s.d. with n = 9 (G1), 9 (G2), 8 (G3), 8 (G4), 9 G5), 9 (G6), 9 (G7), and 9 (G8). c Immunohistological analysis of mouse liver tissues. Images are representatives in each group. Images were taken with a 100× objective. Scale bar: 100 µm. d Analysis of the ROS level in mouse liver tissue. Data are presented as mean ± s.d. with n = 9 (G1), 8 (G2), 8 (G3), 8 (G4), 8 (G5), 6 (G6), 9 (G7), and 9 (G8). G1: Vehicle (qD for 3 days); G2: APAP (400 mg/kg, a single dose); G3: DI-1859 (25 mg/kg, qD for 3 days); G4: DI-1859 (50 mg/kg, qD for 3 days); G5: DI-1859 (25 mg/kg, qD for 3 days), a single dose of APAP at 400 mg/kg administered 3 h after the second dose of DI-1859 administration on day 2; G6: DI-1859 (50 mg/kg, qD for 3 days), a single dose of APAP at 400 mg/kg administered 3 h after the second dose of DI-1859 administration on day 2; G7: APAP (400 mg/kg, a single dose), followed with DI-859 at 25 mg/kg 3 h after APAP administration and two additional doses on day 2 and day 3; and G8: APAP (400 mg/kg, a single dose), followed with DI-859 at 50 mg/kg 3 h after APAP administration and two additional doses on day 2 and day 3. n = 8–9 mice per group. Source data are provided as a Source Data file.
Western blotting was performed as described previously. […]

[5] = C57BL/6 male mice, 25 mg/kg IP, 6 h
[6] = C57BL/6 male mice, 25 mg/kg IP, 24 h
[7] = liver, 25 mg/kg, C57BL/6 male mice, 25 mg/kg IP, 1 h, read-out: Liver concentration
[8] = liver, 25 mg/kg, mouse liver, IP 25mg/kg, 1h, mean of 3 mice, read-out: Concentration in mouse liver, MEAN
[9] = liver, 25 mg/kg, mouse liver, IP 25mg/kg, 3h, mean of 3 mice, read-out: Concentration in mouse liver, MEAN
[10] = liver, 25 mg/kg, mouse liver, IP 25mg/kg, 6h, mean of 3 mice, read-out: Concentration in mouse liver, MEAN
[11] = liver, 25 mg/kg, mouse liver, IP 25mg/kg, 24h, mean, read-out: Concentration in mouse liver, MEAN
[12] = liver, 25 mg/kg, mouse liver, IP 25mg/kg, 24h, single animals, read-out: Concentration in mouse liver, individual mice 1, 2, 3
[13] = plasma, 25 mg/kg, C57BL/6 male mice, 25 mg/kg IP, 1 h, read-out: Plasma concentration
[14] = plasma, 25 mg/kg, C57BL/6 male mice, 25 mg/kg IP, 3 h, read-out: Plasma concentration
[15] = plasma, 25 mg/kg, mouse plasma, IP 25mg/kg, 1h, mean of 3 mice, read-out: Concentration in mouse plasma, MEAN
[16] = plasma, 25 mg/kg, mouse plasma, IP 25mg/kg, 1h, single animals, read-out: Concentration in mouse plasma, individual mice 1, 2, 3
[17] = plasma, 25 mg/kg, mouse plasma, IP 25mg/kg, 3h, mean of 3 mice, read-out: Concentration in mouse plasma, MEAN
[18] = plasma, 25 mg/kg, mouse plasma, IP 25mg/kg, 6h, mean (only one mouse above the limit of quantification), read-out: Concentration in mouse plasma, MEAN
[19] = plasma, 25 mg/kg, mouse plasma, IP 25mg/kg, 6h, single animals, limit of quantification 1 ng/mL, read-out: Concentration in mouse plasma, individual mice 1, 2, 3
[20] = plasma, 25 mg/kg, mouse plasma, IP 25mg/kg, 24h, single animals, limit of quantification 1 ng/mL, read-out: Concentration in mouse plasma, individual mice 1, 2, 3
[21] = mouse liver, IP 25mg/kg, 1h, single animals, 25 mg/kg
[22] = mouse liver, IP 25mg/kg, 3h, single animals, 25 mg/kg
[23] = mouse liver, IP 25mg/kg, 6h, single animals, 25 mg/kg
[24] = mouse plasma, IP 25mg/kg, 1h, single animals, 25 mg/kg
[25] = mouse plasma, IP 25mg/kg, 3h, single animals, 25 mg/kg
[26] = mouse plasma, IP 25mg/kg, 6h, single animals, limit of quantification 1 ng/mL, 25 mg/kg
[27] = mouse plasma, IP 25mg/kg, 24h, single animals, limit of quantification 1 ng/mL

Row | Structure (SMILES) | selectivity in inhibition of the neddylation of cullin 3 over other cullin members [1] | concentration achieving profound inhibition of the neddylation of cullin 3 [2] [nM] | concentration as low as which the level of neddylated cullin 3 is significantly reduced [2] [nM] | time by which the compounds were cleared from systemic circulation ([3]; 25 mg/kg IP) [h] | Liver concentration [3, 5] | Plasma concentration [3, 5] | Liver concentration [3, 6] | Plasma concentration [3, 6] | concentration at 1 h [3, 7] [ng/g] | concentration at 1 h [3, 8] [ng/g] | concentration at 3 h [3, 9] [ng/g] | concentration at 6 h [3, 10] [ng/g] | concentration at 24 h [3, 11] [ng/g] | concentration at 24 h [3, 12] [ng/g] | concentration at 1 h [3, 13] [ng/mL] | concentration at 3 h [3, 14] [ng/mL] | concentration at 1 h [3, 15] [ng/mL] | concentration at 1 h [3, 16] [ng/mL] | concentration at 3 h [3, 17] [ng/mL] | concentration at 6 h [3, 18] [ng/mL] | also measured
1 | C=C(CN(C)C)C(=O)NC[C@@H](NC(=O)[C@H](Cc1nc2ccc(C(C)C)cc2s1)NC(=O)CC)C1CCCCC1 [DI-1859] | 1000 fold | 1 to 3 | ≤ 0.3 | < 3 | BLQ | BLQ | BLQ | BLQ | 3280 ± 531 | 3280 | 30.3 | 2.27 | 1.46 | 1.56 | 1740 ± 292 | 28 ± 12 | 1740 | 2070 | 27.9 | 1.04 | inhibition of neddylation of cullin members ([1]; THLE2, Fig. 6b): similar, high selectivity; concentration at 3 h ([3]; liver, 25 mg/kg, C57BL/6 male mice, 25 mg/kg IP, 3 h, read-out: Liver concentration): 30 ± 29 ng/g; concentration at 1 h ([3]; liver, 25 mg/kg, mouse liver, IP 25mg/kg, 1h, single animals, read-out: Concentration in mouse liver, individual mice 1, 2, 3): 3880 ng/g; concentration at 6 h [3, 19]: < 1 ng/mL; concentration at 24 h [3, 20]: < 1 ng/mL; Concentration in mouse liver, individual mice 1, 2, 3 [3, 21]: 3079.98 ng/g and 2879.94 ng/g; Concentration in mouse liver, individual mice 1, 2, 3 [3, 22]: 13.04 ng/g and 64.07 ng/g and 13.91 ng/g; Concentration in mouse liver, individual mice 1, 2, 3 [3, 23]: 1.59 ng/g; Concentration in mouse liver, individual mice 1, 2, 3 ([3]; mouse liver, IP 25mg/kg, 24h, single animals, 25 mg/kg): 1.41 ng/g and 1.40 ng/g; Concentration in mouse plasma, individual mice 1, 2, 3 [3, 24]: 1549.72 ng/mL and 1588.65 ng/mL; Concentration in mouse plasma, individual mice 1, 2, 3 [3, 25]: 36.02 ng/mL and 14.64 ng/mL and 33.18 ng/mL; Concentration in mouse plasma, individual mice 1, 2, 3 [3, 26]: <1 ng/mL and 1.04 ng/mL; Concentration in mouse plasma, individual mice 1, 2, 3 [3, 27]: <1 ng/mL; upregulation of NRF2 protein in the mouse liver [4]: robust upregulation; persistence of upregulation of NRF2 in mouse liver [4]: > 24 h
2 | C=C(CN1CCOCC1)C(=O)NC[C@@H](NC(=O)[C@H](Cc1nc2ccc(C(C)C)cc2s1)NC(=O)CC)C1CCCCC1 [DI-1548] | > 1000 fold and 1000 fold | 1 to 3 | ≤ 0.3 | < 3 | BLQ | BLQ | BLQ | BLQ | 783 ± 336 | 783 | 3.32 | 2.37 | 1.22 | 1.22 | 1830 ± 319 | 4.5 ± 3.6 | 1830 | 1820 | 4.47 | 1.12 | effect on the neddylation of cullin 1 ([1]; U2OS, treatment time up to 48 h): no effect; effect on the neddylation of cullin 1, 2, 4A, 4B, and 5 ([1]; concentrations up to 1000 nM): no obvious effect; Liver concentration ([3]; C57BL/6 male mice, 25 mg/kg IP, 3 h): BLQ; concentration at 3 h ([3]; liver, 25 mg/kg, mouse liver, IP 25mg/kg, 3h, single animals, read-out: Concentration in mouse liver, individual mice 1, 2, 3): 3.8 ng/g; concentration at 6 h ([3]; liver, 25 mg/kg, mouse liver, IP 25mg/kg, 6h, single animals, read-out: Concentration in mouse liver, individual mice 1, 2, 3): 2.47 ng/g; concentration at 6 h [3, 19]: 1.12 ng/mL; concentration at 24 h [3, 20]: < 1 ng/mL; Concentration in mouse liver, individual mice 1, 2, 3 [3, 21]: 766.08 ng/g and 455.81 ng/g and 1128.06 ng/g; Concentration in mouse liver, individual mice 1, 2, 3 [3, 22]: 2.91 ng/g and 3.26 ng/g; Concentration in mouse liver, individual mice 1, 2, 3 [3, 23]: 2.85 ng/g and 1.80 ng/g; Concentration in mouse plasma, individual mice 1, 2, 3 [3, 24]: 2146.60 ng/mL and 1507.85 ng/mL; Concentration in mouse plasma, individual mice 1, 2, 3 [3, 25]: 2.23 ng/mL and 8.63 ng/mL and 2.55 ng/mL; Concentration in mouse plasma, individual mice 1, 2, 3 [3, 26]: <1 ng/mL; Concentration in mouse plasma, individual mice 1, 2, 3 [3, 27]: <1 ng/mL; upregulation of NRF2 protein in the mouse liver [4]: robust upregulation
